One data set relates to secreted APP. As to the kind of experiment: ELISA for secreted APP in SHSY5Y cells. The data set is classed as cell-based, human. The note with it: 16 hours. As to the method:
(§1) An enzyme-linked immunosorbent assay was developed to detect secreted APP in SHSY5Y cells, a human neuroblastoma cell line. The purpose of the screen was to discover small molecules that inhibit APP protein synthesis in SHSY5Y cells. SHSY5Y cells were plated at 1×10^5 cells/well in […] of DMEM containing 0.5% heat inactivated FBS in 96 well tissue culture treated plates (Falcon no. 35 3072). 144 MES compounds were tested at final concentrations of […] in 0.1% DMSO. Compounds were added and the plates incubated for 16 hours at 37° C./5% CO2. Maxisorp plates (Nunc no. 437958) were coated overnight with […] capture antibody (Biosource 44-100) diluted in Ca^++ and Mg^++ free PBS. Biosource 44-100 is a mouse mAb that recognizes aa 1-100 of human APP. Plates were blocked for 30 minutes with 1 mg/mL BSA in Ca^++ and Mg^++ free PBS. Plates were washed 3× with wash buffer (Ca^++ and Mg^++ free PBS+0.01% Tween20). […] of supernatants and non-cultured medium controls were transferred from culture plates to ELISA plates. Culture plates were reserved for toxicity analysis. Supernatants were incubated for 4 hours at RT on a plate shaker. After supernatant incubation, plates were washed 3×. Primary antibody (Signet Clone 6E-10 biotin) was added at 0.3125 mg/mL and incubated overnight at 4° C. The recognition site of 6E-10 is aa 1-17 of Ab. For detection, a 1:3000 dilution of horseradish peroxidase conjugated streptavidin (Endogen no. N-100) was incubated for 30 minutes. Plates were washed 3×. Enzyme activity was assessed by incubation with […] TMB substrate solution (Moss no. TMB-US) for 20 minutes. The reaction was stopped by the addition of […] 0.18M sulfuric acid. Optical density was read at 450 nm on Wallac Victor2 plate reader. During the first incubation, toxicity was determined using MTS assay, Cell Titer96 AQ reagent (Promega no. G5430). The background values from the non-cultured medium control were subtracted from the sample values and secreted APP levels and toxicity were expressed as % vehicle control. Of the 144 MES compounds screened, 12 inhibited secreted APP as determined by ELISA. The results are depicted in FIGS. 13A-M.
(§2) Using the experimental procedure outlined above, APP secretion and toxicity studies were performed on several other non-carbamate compounds, and the results are shown in Tables 3 and 4. The compound structures are provided in Table 2 in the application, which are identified by their MES number.

The subject of a further data set is SH-SY-5Y Cells. Description: MTS toxicity assay in SHSY5Y cells. Type of data set: cell-based, human. As to the method: as §1, §2
A general note: Tetrazolium assays rely on reduction of a dye to a coloured formazan, in cell work by metabolically active cells.

Each structure is given as a SMILES string.

With `COC(=O)NCCC1C(=O)N(Cc2ccccc2)c2ccc(OC)cc21` (stereo not drawn) [MES 9317], the “APP Secretion by SH-SY-5Y Cells” value in the data set with secreted APP (Dose 2 uM) was found to be 99.87 % vehicle control; in the data set on secreted APP (Dose 6 uM), 112.3 % vehicle control; with secreted APP (Dose 20 uM), 122 % vehicle control. Also, the “APP Toxicity SH-SY-5Y Cells (MTS assay)” value in the data set with SH-SY-5Y Cells (Dose 2 uM) amounted to 97.27 % vehicle control; in the data set with SH-SY-5Y Cells (Dose 6 uM), 97.23 % vehicle control; with SH-SY-5Y Cells (Dose 20 uM), 93.5 % vehicle control.

Regarding `COc1ccc2c(c1)[C@@]1(C)CCNC1N2C` (stereo partly drawn) [MES 9228], the “APP Secretion by SH-SY-5Y Cells” value is 97.75 % vehicle control with secreted APP (Dose 2 uM, listed as 9228); 110.45 % vehicle control with secreted APP (Dose 6 uM, listed as 9228); 130.05 % vehicle control with secreted APP (Dose 20 uM, listed as 9228). Also, the “APP Toxicity SH-SY-5Y Cells (MTS assay)” value is listed as 102.8 % vehicle control with SH-SY-5Y Cells (Dose 2 uM, listed as 9228); 97.6 % vehicle control in the data set on SH-SY-5Y Cells (Dose 6 uM, listed as 9228); 95.4 % vehicle control in the data set with SH-SY-5Y Cells (Dose 20 uM, listed as 9228).

In the case of `COc1ccc2c(c1)C1(c3ccccc3)CCNC1N2C` (stereo not drawn) [MES 9305], the “APP Secretion by SH-SY-5Y Cells” value in the data set with secreted APP (Dose 2 uM) came out at 106.2 % vehicle control; in the data set with secreted APP (Dose 6 uM), 102.4 % vehicle control; in the data set on secreted APP (Dose 20 uM), 102.2 % vehicle control. For the same compound, the figures for the “APP Toxicity SH-SY-5Y Cells (MTS assay)” value in the data set on SH-SY-5Y Cells (Dose 2 uM), in the data set on SH-SY-5Y Cells (Dose 6 uM) and in the data set with SH-SY-5Y Cells (Dose 20 uM) were 95.8 % vehicle control, 96.73 % vehicle control and 94.83 % vehicle control, respectively.

In the case of `COc1ccc2c(c1)c(CCN(C)C)cn2Cc1ccccc1` [MES 9191, N,N-Dimethyl-N^1-benzyl-5-methoxytryptamine], the “APP Secretion by SH-SY-5Y Cells” value in the data set on secreted APP (Dose 0.08 uM) is 100.8 % vehicle control; in the data set on secreted APP (Dose 0.25 uM) it was 101.6 % vehicle control; in the data set with secreted APP (Dose 0.74 uM), 99.87 % vehicle control; with secreted APP (Dose 2 uM) it was 100.74 % vehicle control; in the data set on secreted APP (Dose 6 uM), 65.3 % vehicle control; with secreted APP (Dose 20 uM), 64.36 % vehicle control. The “APP Toxicity SH-SY-5Y Cells (MTS assay)” value in the data set with SH-SY-5Y Cells (Dose 0.08 uM) is 104.5 % vehicle control; in the data set with SH-SY-5Y Cells (Dose 0.25 uM) it was 103.9 % vehicle control; with SH-SY-5Y Cells (Dose 0.74 uM) it was 103.7 % vehicle control; in the data set with SH-SY-5Y Cells (Dose 2 uM) it was 99.18 % vehicle control; with SH-SY-5Y Cells (Dose 6 uM), 92.84 % vehicle control; in the data set with SH-SY-5Y Cells (Dose 20 uM), 91.1 % vehicle control.

For `CNC(C)c1cccc(OC)c1` (stereo not drawn) [MES 9271, 3-Methoxy-(1′-N-methylamino)-ethyl-benzene], the “APP Secretion by SH-SY-5Y Cells” value in the data set on secreted APP (Dose 0.08 uM) is reported as 96.6 % vehicle control; with secreted APP (Dose 0.25 uM), 87.95 % vehicle control; in the data set on secreted APP (Dose 0.74 uM) it was 92.2 % vehicle control; in the data set with secreted APP (Dose 2 uM), 96.1 % vehicle control; in the data set on secreted APP (Dose 6 uM) it was 89.9 % vehicle control; in the data set on secreted APP (Dose 20 uM) it was 63.825 % vehicle control. Also, the “APP Toxicity SH-SY-5Y Cells (MTS assay)” value in the data set with SH-SY-5Y Cells (Dose 0.08 uM) turned out to be 103.55 % vehicle control; in the data set on SH-SY-5Y Cells (Dose 0.25 uM) it was 103.45 % vehicle control; in the data set on SH-SY-5Y Cells (Dose 0.74 uM), 103.1 % vehicle control; in the data set on SH-SY-5Y Cells (Dose 2 uM) it was 99 % vehicle control; in the data set with SH-SY-5Y Cells (Dose 6 uM), 99.475 % vehicle control; in the data set on SH-SY-5Y Cells (Dose 20 uM), 94.1 % vehicle control.

As for `C[C@@]12CCN(Cc3ccccc3)C1Nc1ccc(O)cc12` (stereo partly drawn) [MES 9279], the “APP Secretion by SH-SY-5Y Cells” value was found to be 97.8 % vehicle control in the data set on secreted APP (Dose 0.08 uM); 98.4 % vehicle control in the data set with secreted APP (Dose 0.25 uM); 97 % vehicle control in the data set on secreted APP (Dose 0.74 uM); 43.27 % vehicle control in the data set on secreted APP (Dose 2 uM); 42.37 % vehicle control with secreted APP (Dose 6 uM); 18.4 % vehicle control in the data set on secreted APP (Dose 20 uM). Besides, the “APP Toxicity SH-SY-5Y Cells (MTS assay)” value in the data set with SH-SY-5Y Cells (Dose 0.08 uM) was found to be 102.9 % vehicle control; in the data set on SH-SY-5Y Cells (Dose 0.25 uM), 101.1 % vehicle control; with SH-SY-5Y Cells (Dose 0.74 uM), 100.1 % vehicle control; with SH-SY-5Y Cells (Dose 2 uM) it was 68.63 % vehicle control; with SH-SY-5Y Cells (Dose 6 uM), 46.67 % vehicle control; with SH-SY-5Y Cells (Dose 20 uM), 38.63 % vehicle control.

For the compound `COc1ccc2c(c1)C1(C)CCSC1N2C` (stereo not drawn) [MES 9301], the “APP Secretion by SH-SY-5Y Cells” value in the data set with secreted APP (Dose 2 uM) amounted to 108.45 % vehicle control; in the data set on secreted APP (Dose 6 uM), 106.1 % vehicle control; with secreted APP (Dose 20 uM), 111.15 % vehicle control. Also, the “APP Toxicity SH-SY-5Y Cells (MTS assay)” value in the data set on SH-SY-5Y Cells (Dose 2 uM) is recorded as 99.15 % vehicle control; with SH-SY-5Y Cells (Dose 6 uM) it was 97.35 % vehicle control; with SH-SY-5Y Cells (Dose 20 uM), 95.9 % vehicle control.

For the compound `COc1ccc2c(c1)[C@]1(C)CCN(Cc3ccccc3)C1N2` (stereo partly drawn) [MES 9278], the “APP Secretion by SH-SY-5Y Cells” value came to 118.4 % vehicle control in the data set on secreted APP (Dose 2 uM), 116.8 % vehicle control in the data set with secreted APP (Dose 6 uM) and 120.6 % vehicle control in the data set with secreted APP (Dose 20 uM). In addition, the “APP Toxicity SH-SY-5Y Cells (MTS assay)” value with SH-SY-5Y Cells (Dose 2 uM) is given as 97.63 % vehicle control; in the data set with SH-SY-5Y Cells (Dose 6 uM), 98.4 % vehicle control; in the data set on SH-SY-5Y Cells (Dose 20 uM), 96.33 % vehicle control.

As for `COC(=O)CC1(C)C(=O)N(C)c2ccc(OC)cc21` (stereo not drawn) [MES 9309], the results for the “APP Secretion by SH-SY-5Y Cells” value in the data set with secreted APP (Dose 2 uM), with secreted APP (Dose 6 uM) and in the data set on secreted APP (Dose 20 uM) were 100 % vehicle control, 106.4 % vehicle control and 100.9 % vehicle control, respectively. Further, the “APP Toxicity SH-SY-5Y Cells (MTS assay)” value in the data set with SH-SY-5Y Cells (Dose 2 uM) amounted to 100.85 % vehicle control; in the data set with SH-SY-5Y Cells (Dose 6 uM) it was 98.6 % vehicle control; in the data set with SH-SY-5Y Cells (Dose 20 uM), 101.1 % vehicle control.

In the case of `COc1ccc2c(c1)[C@]1(C)CCN(Cc3ccccc3)C1N2C` (stereo partly drawn) [MES 9276], the “APP Secretion by SH-SY-5Y Cells” value in the data set with secreted APP (Dose 2 uM) was 96.15 % vehicle control; in the data set with secreted APP (Dose 6 uM) it was 116.95 % vehicle control; in the data set with secreted APP (Dose 20 uM) it was 133.4 % vehicle control. Further, the “APP Toxicity SH-SY-5Y Cells (MTS assay)” value with SH-SY-5Y Cells (Dose 2 uM, listed as 9276) was found to be 92.85 % vehicle control; in the data set on SH-SY-5Y Cells (Dose 6 uM, listed as 9276) it was 93.5 % vehicle control; in the data set on SH-SY-5Y Cells (Dose 20 uM, listed as 9276), 90.65 % vehicle control.

For `COc1ccc2c(c1)[C@@]1(C)CCN(C)C1N2Cc1ccccc1` (single isomer, unassigned) [MES 9203], the results for the “APP Secretion by SH-SY-5Y Cells” value in the data set with secreted APP (Dose 2 uM), in the data set on secreted APP (Dose 6 uM) and in the data set on secreted APP (Dose 20 uM) were 103.1 % vehicle control, 103.9 % vehicle control and 108.4 % vehicle control, respectively. In addition, the results for the “APP Toxicity SH-SY-5Y Cells (MTS assay)” value in the data set with SH-SY-5Y Cells (Dose 2 uM), in the data set on SH-SY-5Y Cells (Dose 6 uM) and in the data set on SH-SY-5Y Cells (Dose 20 uM) were 98.93 % vehicle control, 99.17 % vehicle control and 98.83 % vehicle control, respectively.

As to `C=CC1C[N+]2(Cc3ccc(C(F)(F)F)cc3)CCC1CC2[C@H](O)c1ccnc2ccccc12.[Br-]` (stereo partly drawn) [MES 9226], the “APP Secretion by SH-SY-5Y Cells” value with secreted APP (Dose 2 uM) worked out at 116.55 % vehicle control; in the data set with secreted APP (Dose 6 uM), 101.95 % vehicle control; in the data set with secreted APP (Dose 20 uM) it was 104.65 % vehicle control. Further, the “APP Toxicity SH-SY-5Y Cells (MTS assay)” value was determined as 106.4 % vehicle control with SH-SY-5Y Cells (Dose 2 uM), 99.7 % vehicle control in the data set on SH-SY-5Y Cells (Dose 6 uM) and 97.9 % vehicle control in the data set with SH-SY-5Y Cells (Dose 20 uM).

These data come from patent publication US8691864B2, “Agents useful for reducing amyloid precursor protein and treating dementia and methods of use thereof” (priority 2000, dated 2014).
